# Values of other authors as cited in US7713922B2, “Perfume compositions” (Quest International Services B.V., priority 2005, dated 2010).
# Structures can show the parent of a compound that is named as a salt.
# Conditions: at 25° C.
row,Molecule,VP Class (vapour pressure class)
1,CCCCCOC(=O)c1ccccc1O [AMYL SALICYLATE],I (vp greater than 3 micron Hg but less than 30 micron Hg at 25° C.)
2,COC(=O)c1ccccc1 [METHYL BENZOATE],III (vp at least 100 micron Hg at 25° C.)
3,COC(=O)Cc1ccccc1 [METHYL PHENYLACETATE],III (vp at least 100 micron Hg at 25° C.)
4,COC(=O)C=Cc1ccccc1 [METHYL CINNAMATE],I (vp greater than 3 micron Hg but less than 30 micron Hg at 25° C.)
5,CC(C)COC(=O)c1ccccc1O [ISOBUTYL SALICYLATE],I (vp greater than 3 micron Hg but less than 30 micron Hg at 25° C.)
6,COc1ccc(C(C)=O)cc1 [para-METHOXYACETOPHENONE],II (vp greater than 30 micron Hg but less than 100 micron at 25° C.)
7,COc1ccc(C=O)cc1 [ANISIC ALDEHYDE],II (vp greater than 30 micron Hg but less than 100 micron at 25° C.)
8,COC(=O)c1ccccc1O [METHYL SALICYLATE],III (vp at least 100 micron Hg at 25° C.)
9,COC(=O)c1ccccc1N [METHYL ANTHRANILATE],I (vp greater than 3 micron Hg but less than 30 micron Hg at 25° C.)
10,CC(=O)c1ccc(C)cc1 [para-METHYLACETOPHENONE],III (vp at least 100 micron Hg at 25° C.)
11,"CC(C)CCOCCc1ccccc1 [ANTHER, 2-PHENYLETHYL ISOAMYL ETHER]",II (vp greater than 30 micron Hg but less than 100 micron at 25° C.)
12,COCCc1ccccc1 [2-PHENYLETHYL METHYL ETHER],III (vp at least 100 micron Hg at 25° C.)
13,C=CCc1ccc(O)c(OC)c1 [EUGENOL],I (vp greater than 3 micron Hg but less than 30 micron Hg at 25° C.)
14,CC(=O)c1ccccc1 [ACETOPHENONE],III (vp at least 100 micron Hg at 25° C.)
15,CC(C)c1cccc(C(C)CC=O)c1 (stereo not shown) [FLORHYDRAL],I (vp greater than 3 micron Hg but less than 30 micron Hg at 25° C.)
16,CC=Cc1ccc(O)c(OC)c1 [ISOEUGENOL],II (vp greater than 30 micron Hg but less than 100 micron at 25° C.)
17,CC1CC(C)(c2ccccc2)CO1 (stereo not shown) [RHUBAFURAN],II (vp greater than 30 micron Hg but less than 100 micron at 25° C.)
18,CC(=O)CCc1ccccc1 [BENZYL ACETONE],II (vp greater than 30 micron Hg but less than 100 micron at 25° C.)
19,CC(=O)OCc1ccccc1 [BENZYL ACETATE],III (vp at least 100 micron Hg at 25° C.)
20,"C/C=C(\C)C(=O)OCc1ccccc1 [BENZYL TIGLATE, PHENYLMETHYL (2E)-2-METHYLBUT-2-ENOATE]",I (vp greater than 3 micron Hg but less than 30 micron Hg at 25° C.)
21,C=CCOC(=O)COc1ccccc1 [ALLYL PHENOXYACETATE],I (vp greater than 3 micron Hg but less than 30 micron Hg at 25° C.)
22,CCOC(=O)c1ccccc1 [ETHYL BENZOATE],III (vp at least 100 micron Hg at 25° C.)
23,"2,4-DIMETHYL-6-PHENYLDIHYDROPYRAN",I (vp greater than 3 micron Hg but less than 30 micron Hg at 25° C.)

row,Molecule,VP Class (vapour pressure class)
1,OCCCc1ccccc1 [3-PHENYLPROPYL ALCOHOL],I (vp greater than 3 micron Hg but less than 30 micron Hg at 25° C.)
2,COc1ccc(C)cc1 [para-CRESYL METHYL ETHER],III (vp at least 100 micron Hg at 25° C.)
3,"CC(CC=O)CCc1ccccc1 (stereo not shown) [MEFRANAL, 3-METHYL-5-PHENYLPENTANAL]",I (vp greater than 3 micron Hg but less than 30 micron Hg at 25° C.)
4,"CC(C)OCCc1ccccc1 [PETIOLE, 2-PHENYLETHYL ISOPROPYL ETHER]",III (vp at least 100 micron Hg at 25° C.)
5,"CCc1ccc(CC(C)(C)C=O)cc1 [FLORALOZONE, 2,2-DIMETHYL-3-(PARA-ETHYL PHENYL)PROPANAL]",I (vp greater than 3 micron Hg but less than 30 micron Hg at 25° C.)
6,"CC(CCO)CCc1ccccc1 (stereo not shown) [MEFROSOL, 3-METHYL-5-PHENYLPENTANOL]",I (vp greater than 3 micron Hg but less than 30 micron Hg at 25° C.)
7,CC(C)C(=O)OCCOc1ccccc1 [PHENOXYETHYL ISOBUTYRATE],I (vp greater than 3 micron Hg but less than 30 micron Hg at 25° C.)
8,CC(=O)OC(C)c1ccccc1 (stereo not shown) [STYRALLYL ACETATE],III (vp at least 100 micron Hg at 25° C.)
9,"CC(C=O)Cc1ccc(C(C)C)cc1 (stereo not shown) [CYCLAMEN ALDEHYDE, 2-METHYL-3-(4′-ISO-PROPYLPHENYL)PROPANAL]",I (vp greater than 3 micron Hg but less than 30 micron Hg at 25° C.)
10,"C=CCc1ccc(OC)cc1 [METHYL CHAVICOL, 4-METHOXY-1-(2-PROPENYL)-BENZENE]",III (vp at least 100 micron Hg at 25° C.)
11,O=COCCc1ccccc1 [PHENYLETHYL FORMATE],II (vp greater than 30 micron Hg but less than 100 micron at 25° C.)
12,C=CCc1ccc(OC)c(OC)c1 [METHYL EUGENOL],I (vp greater than 3 micron Hg but less than 30 micron Hg at 25° C.)
13,"CC(C)(C)c1ccc(CC#N)cc1 [MARENIL, 4-TERT-BUTYLPHENYLACETONITRILE]",I (vp greater than 3 micron Hg but less than 30 micron Hg at 25° C.)
14,CC(=O)OCCc1ccccc1 [PHENYLETHYL ACETATE],II (vp greater than 30 micron Hg but less than 100 micron at 25° C.)
15,"CCOC(C)OCCc1ccccc1 (stereo not shown) [EFETAAL, (2-{[1-(ETHYLOXY)ETHYL]OXY}ETHYL)BENZENE]",II (vp greater than 30 micron Hg but less than 100 micron at 25° C.)
16,"CC(C)(C)c1ccc(CCC=O)cc1 [BOURGEONAL, 3-(4-TERT.BUTYLPHENYL)PROPANAL]",I (vp greater than 3 micron Hg but less than 30 micron Hg at 25° C.)
17,c1ccc(Oc2ccccc2)cc1 [DIPHENYL OXIDE],I (vp greater than 3 micron Hg but less than 30 micron Hg at 25° C.)
18,CC=Cc1ccc(OC)cc1 [ANETHOLE],II (vp greater than 30 micron Hg but less than 100 micron at 25° C.)
19,"COc1ccc(CC(C)C=O)cc1 (stereo not shown) [CANTHOXAL, 2-METHYL-3-(4-METHOXYPHENYL)PROPANAL]",I (vp greater than 3 micron Hg but less than 30 micron Hg at 25° C.)
20,OC/C=C/c1ccccc1 [CINNAMIC ALCOHOL],I (vp greater than 3 micron Hg but less than 30 micron Hg at 25° C.)
21,COC(Cc1ccccc1)OC,III (vp at least 100 micron Hg at 25° C.)
22,CC(C)CCOC(=O)c1ccccc1O [ISOAMYL SALICYLATE],I (vp greater than 3 micron Hg but less than 30 micron Hg at 25° C.)
23,CC(C=O)Cc1ccc2c(c1)OCO2 (stereo not shown) [AQUANAL],I (vp greater than 3 micron Hg but less than 30 micron Hg at 25° C.)
